Data: article PMC10050199 (Sensors and Actuators. B, Chemical, 2023)

Assays:
SARS-CoV-2 S1 = assay type: binding
SARS-CoV-2 SP [1] = biological target: T1, SARS-CoV-2 SP (Severe acute respiratory syndrome coronavirus 2, UniProt P0DTC2)
SARS-CoV-2 SP [2] = biological target: T1, SARS-CoV-2 SP; remark: listed apart in the source

Sequence | binding to SARS-CoV-2 S1 (SARS-CoV-2 S1) | binding to SARS-CoV-2 SP (absorbance) (SARS-CoV-2 SP [1]) | frequency of peptide sequence among sequenced phage monoclonals (SARS-CoV-2 SP [2])
WNLDLSQWLPPM [P1-phage] | may also bind to SARS-CoV-2 S1 loosely | higher absorbance value and was significantly higher than that of the control | 
WNLDLSQWLPPM [P1] |  |  | 16/30
